Assay results published in the NIST ThermoML archive (doi:10.1021/je800828y).
Numbers after ± are expanded uncertainties.

Settings: 351.44 K; Liquid; Ebulliometric method (Recirculating still)

vapor or sublimation pressure: 101.3 ± 0.1 kPa
Compound: CCO [ethanol]
